The values that follow are results of earlier work, collected in patent US11083734B2 (ACUCORT AB, priority 2014, dated 2021).

Structures are written as SMILES.

For data set [1] the following is noted: humans, oral administration, literature and product information.

Regarding `C[C@@H]1C[C@H]2[C@@H]3CCC4=CC(=O)C=C[C@]4(C)[C@@]3(F)[C@@H](O)C[C@]2(C)[C@@]1(O)C(=O)COP(=O)(O)O` [dexamethasone sodium phosphate], the solubility in water entry was “freely soluble”.

With `C[C@@H]1C[C@H]2[C@@H]3CCC4=CC(=O)C=C[C@]4(C)[C@@]3(F)[C@@H](O)C[C@]2(C)[C@@]1(O)C(=O)CO` [dexamethasone], the “solubility in anhydrous ethanol” value is reported as “sparingly soluble” and the solubility in water entry is given as “practically insoluble”. The “t(max)” value in data set [1] was around 1.5 h.
